# Measurements taken from patent US8633207B2, “Quinazoline compounds and methods of use thereof” (Ambit Biosciences Corporation, priority 2010, dated 2014).
# pIC50, pKd: −log10 of the molar value.
# Experiments:
# JAK3 = target: T1, JAK3 (Homo sapiens, UniProt P52333); experiment: Competition binding assay to determine Kd against JAK kinases: JAK3
# T1 construct: made in house; host or cells: T7 phage display, or HEK-293 cells (alternative)
# T1 sequence (P52333 1-1124): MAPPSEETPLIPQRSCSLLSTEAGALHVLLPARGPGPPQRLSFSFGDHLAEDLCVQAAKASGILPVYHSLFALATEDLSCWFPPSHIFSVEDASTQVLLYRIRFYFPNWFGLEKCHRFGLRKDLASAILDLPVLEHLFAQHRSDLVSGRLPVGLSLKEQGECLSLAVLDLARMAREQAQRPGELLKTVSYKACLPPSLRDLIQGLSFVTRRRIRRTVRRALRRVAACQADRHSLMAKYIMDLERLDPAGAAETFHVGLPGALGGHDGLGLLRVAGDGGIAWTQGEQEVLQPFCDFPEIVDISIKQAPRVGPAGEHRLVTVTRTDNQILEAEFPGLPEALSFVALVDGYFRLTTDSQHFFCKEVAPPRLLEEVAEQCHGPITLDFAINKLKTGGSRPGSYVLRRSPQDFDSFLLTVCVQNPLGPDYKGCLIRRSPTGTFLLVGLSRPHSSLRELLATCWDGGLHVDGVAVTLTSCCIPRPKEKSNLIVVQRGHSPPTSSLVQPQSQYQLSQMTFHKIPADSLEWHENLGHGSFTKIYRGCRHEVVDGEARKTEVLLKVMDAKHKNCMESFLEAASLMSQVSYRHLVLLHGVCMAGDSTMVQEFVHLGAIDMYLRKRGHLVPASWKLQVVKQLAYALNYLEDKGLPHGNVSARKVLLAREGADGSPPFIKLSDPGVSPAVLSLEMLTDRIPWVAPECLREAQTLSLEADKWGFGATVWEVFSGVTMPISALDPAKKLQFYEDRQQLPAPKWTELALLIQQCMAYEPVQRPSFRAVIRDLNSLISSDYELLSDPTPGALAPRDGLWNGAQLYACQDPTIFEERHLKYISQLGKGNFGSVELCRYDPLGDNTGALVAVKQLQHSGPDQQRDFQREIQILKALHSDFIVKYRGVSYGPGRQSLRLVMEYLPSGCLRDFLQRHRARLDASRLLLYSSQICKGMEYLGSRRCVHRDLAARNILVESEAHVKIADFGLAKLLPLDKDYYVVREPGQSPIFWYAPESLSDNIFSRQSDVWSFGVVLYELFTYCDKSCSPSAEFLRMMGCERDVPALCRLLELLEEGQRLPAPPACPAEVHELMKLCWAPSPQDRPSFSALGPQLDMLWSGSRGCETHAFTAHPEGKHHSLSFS
# From the text: (§1) Competition Binding Assay to Determine Binding Constants (Kd) of the Compounds Against JAK Kinases
# (§2) Competition binding assays used herein were developed, validated and performed as described in Fabian et al., Nature Biotechnology 2005, 23, 329-336. Kinases were produced as fusions to T7 phage (See, Fabian et al. or WO04/015142) or alternatively, the kinases were expressed in HEK-293 cells and subsequently tagged with DNA for PCR detection (See, WO08/005,310). For the binding assays, streptavidin-coated magnetic beads were treated with biotinylated affinity ligands for 30 min at rt to generate affinity resins. The liganded beads were blocked with excess biotin and washed with blocking buffer (SeaBlock (Pierce), 1% BSA, 0.05% Tween 20, 1 mM DTT) to remove unbound ligand and to reduce non-specific binding. Binding reactions were assembled by combining kinase, liganded affinity beads, and test compounds in 1× binding buffer (20% SeaBlock, 0.17×PBS, 0.05% Tween 20, 6 mM DTT). Test compounds were prepared as 100× stocks in DMSO and rapidly diluted into the aqueous environment. DMSO was added to control assays lacking a test compound. Primary screen interactions were performed in polypropylene 384-well plates in a final volume of 34 μL, while Kd determinations were performed in polystyrene 96-well plates in a final volume of 135 μL. The assay plates were incubated at room temperature with shaking for 1 hour, long enough for binding reactions to reach equilibrium, and the affinity beads were washed extensively with wash buffer (1×PBS, 0.05% Tween 20) to remove unbound protein. The beads were then resuspended in elution buffer (1×PBS, 0.05% Tween 20, 2 μM non-biotinylated affinity ligand) and incubated at room temperature with shaking for 30 min. The kinase concentration in the eluates was measured by quantitative PCR. Each kinase was tested individually against each compound. Kds were determined using eleven serial threefold dilutions. A selectivity score, which is a quantitative measure of selectivity of a compound against a panel of enzymes, may be calculated for a compound by dividing the number of enzymes for which a compound meets a set criteria, (for example, a binding constant of 100 nM or less), by the total number of enzymes tested.
# Tyk2 = target: T2, Tyk2 (Homo sapiens, UniProt P29597); experiment: Competition binding assay to determine Kd against JAK kinases: Tyk2
# T2 construct: made in house; host or cells: T7 phage display, or HEK-293 cells (alternative)
# T2 sequence (P29597 whole entry): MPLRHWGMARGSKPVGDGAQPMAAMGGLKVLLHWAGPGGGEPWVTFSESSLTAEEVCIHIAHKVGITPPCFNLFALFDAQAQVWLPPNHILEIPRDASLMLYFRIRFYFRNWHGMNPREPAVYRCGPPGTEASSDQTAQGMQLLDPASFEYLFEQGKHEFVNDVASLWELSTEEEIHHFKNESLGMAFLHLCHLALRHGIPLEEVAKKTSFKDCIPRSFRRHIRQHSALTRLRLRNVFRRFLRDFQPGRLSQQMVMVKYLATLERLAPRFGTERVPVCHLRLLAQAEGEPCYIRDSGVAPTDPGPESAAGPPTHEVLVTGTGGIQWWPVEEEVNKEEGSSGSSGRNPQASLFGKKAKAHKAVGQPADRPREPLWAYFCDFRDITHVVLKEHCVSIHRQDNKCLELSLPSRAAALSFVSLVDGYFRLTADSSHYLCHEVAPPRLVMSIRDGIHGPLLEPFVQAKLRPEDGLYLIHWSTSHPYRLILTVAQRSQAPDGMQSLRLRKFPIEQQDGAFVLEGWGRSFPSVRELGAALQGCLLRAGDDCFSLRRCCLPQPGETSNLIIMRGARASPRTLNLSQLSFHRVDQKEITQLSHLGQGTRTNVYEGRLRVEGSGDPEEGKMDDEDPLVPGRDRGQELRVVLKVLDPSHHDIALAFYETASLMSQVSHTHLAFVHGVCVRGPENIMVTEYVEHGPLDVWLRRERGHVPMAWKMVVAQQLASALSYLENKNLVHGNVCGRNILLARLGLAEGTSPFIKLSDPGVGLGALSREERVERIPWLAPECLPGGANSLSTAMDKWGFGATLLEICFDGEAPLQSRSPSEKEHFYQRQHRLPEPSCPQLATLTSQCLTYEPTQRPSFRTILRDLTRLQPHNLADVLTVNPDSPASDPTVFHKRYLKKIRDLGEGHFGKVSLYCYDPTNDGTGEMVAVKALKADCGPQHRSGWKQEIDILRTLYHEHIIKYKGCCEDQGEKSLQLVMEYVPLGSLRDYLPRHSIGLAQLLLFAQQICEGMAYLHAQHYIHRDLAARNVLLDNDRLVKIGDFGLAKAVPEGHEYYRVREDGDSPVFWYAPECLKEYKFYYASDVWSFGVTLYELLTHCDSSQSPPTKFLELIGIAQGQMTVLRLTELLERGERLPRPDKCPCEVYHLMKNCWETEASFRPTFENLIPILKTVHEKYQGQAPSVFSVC
# From the text: as §1, §2
# [1] = system: GM-CSFR/JAK2/STAT5 pathway; experiment: csTF-1 cell-based reporter assay; details: Homo sapiens; csTF-1 cells, GM-CSF at 2 ng/mL, 4 hours; read-out: Cell Assay: CS TF-1 reporter assay IC50
# Experimental: csTF-1 Cell-Based Reporter Assay
# csTF-1 cells are derived from the human erythroleukemia cell line that is growth dependent on GM-CSF and has an intact GM-CSFR/JAK2/STAT5 pathway. The cell line contains stably integrated beta-lactamase reporter gene under the control of the […] (irf 1) response element recognized by the activated transcription factor STATS. csTF-1 cells (Invitrogen K1219) were washed with assay media (97% OPTIMEM/0.5% dialyzed FBS/0.1 mM NEAA/1 mM Na pyr/P/S) and seeded in the same media at 5×10^5 cell/mL in T150 flask. After 16 hour incubation, cells were seeded at 2×10^5 cell/well in 50 μl volume, into Costar, clear bottom, 96-well assay plates. Serial dilutions of compounds were added to the plates with final DMSO concentration at 0.5% and GM-CSF at 2 ng/mL and the plates were then incubated at […] and 5% CO2 for 4 hours. The plates were brought to room temperature before adding Substrate Mixture according to manufacturer's protocol (Invitrogen, Catalog #K1085). The assay plates containing the substrate mixture were incubated in the dark at room temperature for 2 hours. Blue and green fluorescence was measured with excitation at 409 nm and emission at 460 nm (for blue) and excitation at 409 nm and emission at 530 nm (for green) using Spectra Max Gemini EM.
# JAK2 = target: T3, JAK2 (Homo sapiens, UniProt O60674); experiment: Competition binding assay to determine Kd against JAK kinases: JAK2
# T3 construct: made in house; host or cells: T7 phage display, or HEK-293 cells (alternative)
# T3 sequence (O60674 whole entry): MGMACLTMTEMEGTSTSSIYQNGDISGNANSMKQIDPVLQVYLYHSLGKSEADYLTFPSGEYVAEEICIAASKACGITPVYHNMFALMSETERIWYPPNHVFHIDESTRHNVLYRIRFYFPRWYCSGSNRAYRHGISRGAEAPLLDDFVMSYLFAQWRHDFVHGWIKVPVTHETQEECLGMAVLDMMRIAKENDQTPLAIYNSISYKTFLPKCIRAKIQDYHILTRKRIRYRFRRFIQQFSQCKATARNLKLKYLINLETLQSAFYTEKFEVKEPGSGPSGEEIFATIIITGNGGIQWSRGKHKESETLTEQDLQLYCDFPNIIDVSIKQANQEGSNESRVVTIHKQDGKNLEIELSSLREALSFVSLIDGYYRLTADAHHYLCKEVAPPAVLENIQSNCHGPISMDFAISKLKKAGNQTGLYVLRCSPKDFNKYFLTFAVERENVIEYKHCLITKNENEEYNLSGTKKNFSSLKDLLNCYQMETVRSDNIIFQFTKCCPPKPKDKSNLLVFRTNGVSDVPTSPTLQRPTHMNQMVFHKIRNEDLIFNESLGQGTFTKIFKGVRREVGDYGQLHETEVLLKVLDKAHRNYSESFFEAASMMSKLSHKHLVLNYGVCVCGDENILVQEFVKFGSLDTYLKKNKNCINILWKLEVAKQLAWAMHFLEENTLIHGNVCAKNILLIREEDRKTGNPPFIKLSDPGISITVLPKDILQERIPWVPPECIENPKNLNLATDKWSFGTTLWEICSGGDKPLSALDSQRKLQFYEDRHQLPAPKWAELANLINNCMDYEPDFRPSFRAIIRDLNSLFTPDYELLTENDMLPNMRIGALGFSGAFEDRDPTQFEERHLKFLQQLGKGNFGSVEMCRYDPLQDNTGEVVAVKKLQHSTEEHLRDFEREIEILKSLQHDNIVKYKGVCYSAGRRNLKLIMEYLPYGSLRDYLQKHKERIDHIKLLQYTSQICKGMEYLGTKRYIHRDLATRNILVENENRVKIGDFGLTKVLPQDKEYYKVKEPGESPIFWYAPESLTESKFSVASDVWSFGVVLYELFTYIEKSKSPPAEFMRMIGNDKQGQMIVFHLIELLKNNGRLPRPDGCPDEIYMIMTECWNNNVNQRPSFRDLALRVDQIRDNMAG
# From the text: as §1, §2
Structure (SMILES),pKd (JAK3),pKd (Tyk2),pIC50 [1],pKd (JAK2)
"Cc1cc(Nc2nc(C(F)(F)c3ccc(F)cn3)nc3c(C4CC4)cccc23)n[nH]1 [Example 51, 8-cyclopropyl-2-(difluoro(5-fluoropyridin-2-yl)methyl)-N-(5-methyl-1H-pyrazol-3-yl)quinazolin-4-amine]",7.00 to 8.00,≥ 8.00,6.30 to 7.00,≥ 9.00
"Cc1cc(Nc2nc(C(F)(F)c3ccc(F)cn3)nc3c(S(C)(=O)=O)cccc23)n[nH]1 [Example 37, 2-(difluoro(5-fluoropyridin-2-yl)methyl)-N-(5-methyl-1H-pyrazol-3-yl)-8-(methylsulfonyl)quinazolin-4-amine]",7.00 to 8.00,≥ 8.00,6.30 to 7.00,8.00 to 9.00
"Cc1cc(Nc2nc(C(F)(F)c3ncc(F)cn3)nc3c(Cl)cccc23)n[nH]1 [Example 40, 8-chloro-2-(difluoro(5-fluoropyrimidin-2-yl)methyl)-N-(5-methyl-1H-pyrazol-3-yl)quinazolin-4-amine]",7.00 to 8.00,≥ 8.00,≥ 7.00,≥ 9.00
"Fc1ccc(C(F)(F)c2nc(Nc3cc[nH]n3)c3ccccc3n2)nc1 [Example 4, 2-(difluoro(5-fluoropyridin-2-yl)methyl)-N-(1H-pyrazol-3-yl)quinazolin-4-amine]",7.00 to 8.00,≥ 8.00,≥ 7.00,≥ 9.00
"CC(=O)Nc1cccc2c(Nc3cc(C)[nH]n3)nc(C(F)(F)c3ccc(F)cn3)nc12 [Example 48, N-(2-(difluoro(5-fluoropyridin-2-yl)methyl)-4-((5-methyl-1H-pyrazol-3-yl)amino)quinazolin-8-yl)acetamide]",≥ 8.00,≥ 8.00,≥ 7.00,≥ 9.00
"Cc1cc(Nc2nc(C(F)(F)c3ccc(F)cn3)nc3c(O)cccc23)n[nH]1 [Example 46, 2-(difluoro(5-fluoropyridin-2-yl)methyl)-4-((5-methyl-1H-pyrazol-3-yl)amino)quinazolin-8-ol]",≥ 8.00,≥ 8.00,< 6.30,≥ 9.00
"Cc1cc(Nc2nc(C(F)(F)c3ccc(F)cn3)nc3c(NC=O)cccc23)n[nH]1 [Example 44, N-(2-(difluoro(5-fluoropyridin-2-yl)methyl)-4-((5-methyl-1H-pyrazol-3-yl)amino)quinazolin-8-yl)formamide]",≥ 8.00,≥ 8.00,≥ 7.00,≥ 9.00
"Cc1cc(Nc2nc(C(F)(F)c3ccc(F)cn3)nc3c(N)cccc23)n[nH]1 [Example 50, 2-(difluoro(5-fluoropyridin-2-yl)methyl)-N4-(5-methyl-1H-pyrazol-3-yl)quinazoline-4,8-diamine]",≥ 8.00,≥ 8.00,≥ 7.00,≥ 9.00
"Cc1cc(Nc2nc(C(F)(F)c3ccc(F)cn3)nc3cc(F)ccc23)n[nH]1 [Example 15, 2-(difluoro(5-fluoropyridin-2-yl)methyl)-7-fluoro-N-(5-methyl-1H-pyrazol-3-yl)quinazolin-4-amine]",7.00 to 8.00,≥ 8.00,≥ 7.00,≥ 9.00
"COc1cccc2c(Nc3cc(C)[nH]n3)nc(C(F)(F)c3ccc(F)cn3)nc12 [Example 43, 2-(difluoro(5-fluoropyridin-2-yl)methyl)-8-methoxy-N-(5-methyl-1H-pyrazol-3-yl)quinazolin-4-amine]",≥ 8.00,≥ 8.00,≥ 7.00,≥ 9.00
"Cc1cc(Nc2nc(C(F)(F)c3ccc(F)cn3)nc3cc(C(N)=O)ccc23)n[nH]1 [Example 41, 2-(difluoro(5-fluoropyridin-2-yl)methyl)-4-((5-methyl-1H-pyrazol-3-yl)amino)quinazoline-7-carboxamide]",≥ 8.00,≥ 8.00,< 6.30,≥ 9.00
"Cc1cc(Nc2nc(C(F)(F)c3ccc(F)cn3)nc3c(NS(C)(=O)=O)cccc23)n[nH]1 [Example 52, N-(2-(difluoro(5-fluoropyridin-2-yl)methyl)-4-((5-methyl-1H-pyrazol-3-yl)amino)quinazolin-8-yl)methanesulfonamide]",≥ 8.00,≥ 8.00,≥ 7.00,≥ 9.00
"Cc1cc(Nc2nc(C(F)(F)c3ccc(F)cn3)nc3cc(Cl)ccc23)n[nH]1 [Example 16, 7-chloro-2-(difluoro(5-fluoropyridin-2-yl)methyl)-N-(5-methyl-1H-pyrazol-3-yl)quinazolin-4-amine]",7.00 to 8.00,≥ 8.00,≥ 7.00,≥ 9.00
"Cc1cc(Nc2nc(C(F)(F)c3ccc(F)cn3)nc3c(Cl)cccc23)n[nH]1 [Example 13, 8-chloro-2-(difluoro(5-fluoropyridin-2-yl)methyl)-N-(5-methyl-1H-pyrazol-3-yl)quinazolin-4-amine]",≥ 8.00,≥ 8.00,≥ 7.00,≥ 9.00
"Cc1cc(Nc2nc(C(F)(F)c3ccc(F)cn3)nc3cc(C4CC4)ccc23)n[nH]1 [Example 9, 7-cyclopropyl-2-(difluoro(5-fluoropyridin-2-yl)methyl)-N-(5-methyl-1H-pyrazol-3-yl)quinazolin-4-amine]",≥ 8.00,≥ 8.00,≥ 7.00,≥ 9.00
"Cc1cc(Nc2nc(C(F)(F)c3ccc(F)cn3)nc3c(C(F)(F)F)cccc23)n[nH]1 [Example 33, 2-(difluoro(5-fluoropyridin-2-yl)methyl)-N-(5-methyl-1H-pyrazol-3-yl)-8-(trifluoromethyl)quinazolin-4-amine]",< 7.00,7.00 to 8.00,6.30 to 7.00,8.00 to 9.00
"COC(=O)c1cccc2c(Nc3cc(C)[nH]n3)nc(C(F)(F)c3ccc(F)cn3)nc12 [Example 47, methyl 2-(difluoro(5-fluoropyridin-2-yl)methyl)-4-((5-methyl-1H-pyrazol-3-yl)amino)quinazoline-8-carboxylate]",≥ 8.00,≥ 8.00,–,≥ 9.00
